Structures can show the parent of a compound that is named as a salt.
Test system: NRG1-ERBB4 signaling
Test: Nrg1-ERBB4-PIK3R1 split TEV co-culture compound screen of the NIH Clinical Collection
Type: cell-based, human
[1] = compounds at 10 μM, 24 h, PC12 split TEV assay cells co-cultured with Nrg1-expressing PC12 cells, analysed with cellHTS2
[2] = NIH Clinical Collection NCC-003 raw data, compounds ranked by Z-score, 'flagged' given instead of a Z-score
[3] = compound screen of the NIH Clinical Collection, sheet raw data NCC-003, compounds ranked by Z-score

Structure (SMILES) | Z-SCORE [1] | Z-SCORE [3] | other results
CC[N+](C)(C)c1cccc(O)c1 [EDROPHONIUM CHLORIDE, reference compound] | -1.53 | – | –
O=C1Nc2ccc(Cl)cc2[C@@](C#CC2CC2)(C(F)(F)F)O1 [EFAVIRENZ] | – | – | Z-SCORE [2]: flagged
CCOC(=O)[C@H](CCc1ccccc1)N[C@@H](C)C(=O)N1CCC[C@H]1C(=O)O [ENALAPRIL MALEATE, reference compound] | 0 | – | –
CCN1CCN(c2cc3c(cc2F)c(=O)c(C(=O)O)cn3C2CC2)CC1 [ENROFLOXACIN] | – | 0.83 | –
COc1cccc2c1C(=O)c1c(O)c3c(c(O)c1C2=O)C[C@@](O)(C(=O)CO)C[C@@H]3O[C@H]1C[C@H](N)[C@@H](O)[C@H](C)O1 [EPIRUBICIN HYDROCHLORIDE] | – | – | Z-SCORE [2]: flagged
CN(C)CCC[C@@]1(c2ccc(F)cc2)OCc2cc(C#N)ccc21 [ESCITALOPRAM OXALATE] | – | -0.11 | –
COC(=O)CCc1ccc(OCC(O)CNC(C)C)cc1 (stereo not drawn) [ESMOLOL HYDROCHLORIDE] | – | 0.38 | –
COc1ccc2[n-]c([S+]([O-])Cc3ncc(C)c(OC)c3C)nc2c1.COc1ccc2[n-]c([S+]([O-])Cc3ncc(C)c(OC)c3C)nc2c1.[Mg+2] (stereo not drawn) [ESOMEPRAZOLE Mg] | – | 0.45 | –
C=C(CC)C(=O)c1ccc(OCC(=O)O)c(Cl)c1Cl [ETHACRYNIC ACID, reference compound] | -1.25 | – | –
C#C[C@]1(O)CC[C@H]2[C@@H]3CCc4cc(O)ccc4[C@H]3CC[C@@]21C [ETHYNYLESTRADIOL] | – | 0.75 | –
C=C1C[C@@H]2[C@H](CC[C@]3(C)C(=O)CC[C@@H]23)[C@@]2(C)C=CC(=O)C=C12 [EXEMESTANE] | – | – | Z-SCORE [2]: -1.23
O=C1[C@H](CC[C@H](O)c2ccc(F)cc2)[C@@H](c2ccc(O)cc2)N1c1ccc(F)cc1 [EZETIMIBE] | – | 0.64 | –
Clc1ccc(COC(Cn2ccnc2)c2ccc(Cl)cc2Cl)cc1 (stereo not drawn) [Econazole Nitrate, reference compound] | -2.43 | – | –
O=C(O[C@@H]1Cc2c(O)cc(O)cc2O[C@@H]1c1cc(O)c(O)c(O)c1)c1cc(O)c(O)c(O)c1 [Epigallocatechin gallate] | – | 1.36 | –
CCOC(=O)CCC(=O)O[C@H]1[C@H](O[C@@H]2[C@@H](C)[C@H](O[C@H]3C[C@@](C)(OC)[C@@H](O)[C@H](C)O3)[C@@H](C)C(=O)O[C@H](CC)[C@@](C)(O)[C@H](O)[C@@H](C)C(=O)[C@H](C)C[C@@]2(C)O)O[C@H](C)C[C@@H]1N(C)C [Eryped, reference compound] | -0.38 | – | –
CN1CCN(C(=O)O[C@H]2c3nccnc3C(=O)N2c2ccc(Cl)cn2)CC1 [Eszopiclone, reference compound] | 0.38 | – | –
CC[C@@H](CO)NCCN[C@@H](CC)CO [Ethambutol, reference compound] | -0.12 | – | –
CCc1cc(C(N)=S)ccn1 [Ethionamide, reference compound] | 0.42 | – | –
CC[C@]1(O)CC[C@H]2[C@@H]3CCC4=CCCC[C@@H]4[C@H]3CC[C@@]21C [Ethylestrenol] | – | -0.98 | –
CCc1cccc2c3c([nH]c12)C(CC)(CC(=O)O)OCC3 (stereo not drawn) [Etodolac, reference compound] | -0.28 | – | –
COc1cc([C@@H]2c3cc4c(cc3[C@@H](O[C@@H]3O[C@@H]5CO[C@@H](C)O[C@H]5[C@H](O)[C@H]3O)[C@H]3COC(=O)[C@H]23)OCO4)cc(OC)c1O [Etoposide] | – | – | Z-SCORE [2]: -2.67
O=C(c1ccc(OCCN2CCCCC2)cc1)c1c(-c2ccc(O)cc2)sc2cc(O)ccc12 [Evista, reference compound] | 1.2 | – | –

Structure (SMILES) | Z-SCORE [1] | Z-SCORE [3] | other results
CC(=O)OCC(CCn1cnc2cnc(N)nc21)COC(C)=O [FAMCICLOVIR] | – | 1.05 | –
NC(N)=Nc1nc(CSCCC(N)=NS(N)(=O)=O)cs1 [FAMOTIDINE] | – | – | Z-SCORE [2]: -1.65
CC(C)OC(=O)C(C)(C)Oc1ccc(C(=O)c2ccc(Cl)cc2)cc1 [FENOFIBRATE, reference compound] | 0.77 | – | –
Oc1ccc(C2CNCCc3c2cc(O)c(O)c3Cl)cc1 (stereo not drawn) [FENOLDOPAM MESYLATE] | – | -0.37 | –
C[N+]1(CCC(C(N)=O)(c2ccccc2)c2ccccc2)CCCCC1 [FENPIVERINIUM BROMIDE] | – | -0.58 | –
CC(C)(C)NC(=O)[C@H]1CC[C@H]2[C@@H]3CC[C@H]4NC(=O)C=C[C@]4(C)[C@H]3CC[C@]12C [FINASTERIDE] | – | -0.75 | –
COC(=O)Nc1nc2cc(C(=O)c3ccc(F)cc3)ccc2[nH]1 [FLUBENDAZOLE] | – | – | Z-SCORE [2]: flagged
Nc1nc(F)nc2c1ncn2[C@@H]1O[C@H](CO)[C@@H](O)[C@@H]1O [FLUDARABINE, reference compound] | 0.7 | – | –
CCOC(=O)c1ncn2c1CN(C)C(=O)c1cc(F)ccc1-2 [FLUMAZENIL] | – | 0.09 | –
CC(=O)OCC(=O)[C@@]12OC(C)(C)O[C@@H]1C[C@H]1[C@@H]3C[C@H](F)C4=CC(=O)C=C[C@]4(C)[C@@]3(F)[C@@H](O)C[C@@]12C [FLUOCINOLONE ACETONIDE 21-ACETATE, reference compound] | 0.81 | – | –
CC1(C)O[C@@H]2C[C@H]3[C@@H]4C[C@H](F)C5=CC(=O)C=C[C@]5(C)[C@@]4(F)[C@@H](O)C[C@]3(C)[C@]2(C(=O)CO)O1 [FLUOCINOLONE ACETONIDE, reference compound] | -0.16 | – | –
CC(C)C(=O)Nc1ccc([N+](=O)[O-])c(C(F)(F)F)c1 [FLUTAMIDE, reference compound] | 0.85 | – | –
CCC(=O)O[C@]1(C(=O)SCF)[C@H](C)C[C@H]2[C@@H]3C[C@H](F)C4=CC(=O)C=C[C@]4(C)[C@@]3(F)[C@@H](O)C[C@@]21C [FLUTICASONE PROPIONATE] | – | -0.31 | –
O=c1[nH]c(=O)n(C2CCCO2)cc1F (stereo not drawn) [FTORAFUR] | – | -0.09 | –
NS(=O)(=O)c1cc(C(=O)O)c(NCc2ccco2)cc1Cl [FUROSEMIDE, reference compound] | 0.8 | – | –
NC(=O)OCC(COC(N)=O)c1ccccc1 [Felbamate] | – | -0.25 | –
CCOC(=O)C1=C(C)NC(C)=C(C(=O)OC)C1c1cccc(Cl)c1Cl (stereo not drawn) [Felodipine, reference compound] | -1.97 | – | –
O=C(NCC1CCCCN1)c1cc(OCC(F)(F)F)ccc1OCC(F)(F)F (stereo not drawn) [Flecainide Acetate, reference compound] | -0.19 | – | –
O=c1[nH]c(=O)n([C@H]2C[C@H](O)[C@@H](CO)O2)cc1F [Floxuridine, reference compound] | -0.39 | – | –
OC(Cn1cncn1)(Cn1cncn1)c1ccc(F)cc1F [Fluconazole, reference compound] | 0.28 | – | –
CC(N)C12CC3CC(CC(C3)C1)C2 (stereo not drawn) [Flumadine, reference compound] | -0.97 | – | –
CC1(C)O[C@@H]2C[C@H]3[C@@H]4C[C@H](F)C5=CC(=O)C=C[C@]5(C)[C@H]4[C@@H](O)C[C@]3(C)[C@]2(C(=O)CO)O1 [FluniSOLIDe, reference compound] | 2.03 | – | –

Structure (SMILES) | Z-SCORE [1] | Z-SCORE [3] | other results
CC(=O)[C@@]1(O)CC[C@H]2[C@@H]3C[C@H](C)C4=CC(=O)C=C[C@]4(C)[C@@]3(F)[C@@H](O)C[C@@]21C [Fluorometholone, reference compound] | -0.4 | – | –
CN1CCN(C2=Nc3cc(F)ccc3Cc3ccccc32)CC1 [Fluperlapine] | – | -0.5 | –
CC(C(=O)O)c1ccc(-c2ccccc2)c(F)c1 (stereo not drawn) [Flurbiprofen, reference compound] | 0.7 | – | Z-SCORE [2]: -1.64
COCCCC/C(=N\OCCN)c1ccc(C(F)(F)F)cc1 [Fluvoxamine] | – | -0.2 | –
Nc1nc(=O)c2nc(CNc3ccc(C(=O)N[C@@H](CCC(=O)O)C(=O)O)cc3)cnc2[nH]1 [Folic acid, reference compound] | 0 | – | –
Cc1ccc(C)c(OCCCC(C)(C)C(=O)O)c1 [GEMFIBROZIL, reference compound] | 0.52 | – | –
CCC1=C(C)CN(C(=O)NCCc2ccc(S(=O)(=O)NC(=O)N[C@H]3CC[C@H](C)CC3)cc2)C1=O [GLIMEPIRIDE] | – | 0.02 | –
Cc1cnc(C(=O)NCCc2ccc(S(=O)(=O)NC(=O)NC3CCCCC3)cc2)cn1 [GLIPIZIDE, reference compound] | 0.73 | – | –
CC(C)C[C@H](NC(=O)[C@@H](COC(C)(C)C)NC(=O)[C@H](Cc1ccc(O)cc1)NC(=O)[C@H](CO)NC(=O)[C@H](Cc1c[nH]c2ccccc12)NC(=O)[C@H](Cc1cnc[nH]1)NC(=O)[C@@H]1CCC(=O)N1)C(=O)N[C@@H](CCCNC(=N)N)C(=O)N1CCC[C@H]1C(=O)NNC(N)=O [GOSERELIN ACETATE] | – | – | Z-SCORE [2]: -1.23
COC(=O)N1CCN(C(=O)Cc2ccc(Cl)c(Cl)c2)C(CN2CCCC2)C1 (stereo not drawn) [GR 89696] | – | 1.46 | –
CN1C2CCCC1CC(NC(=O)c1nn(C)c3ccccc13)C2 (stereo not drawn) [GRANISETRON HCl] | – | 0.21 | –
CCOC(=O)c1ccc(OC(=O)CCCCCN=C(N)N)cc1.CS(=O)(=O)O [Gabexate mesylate] | – | -0.47 | –
COc1ccc2c3c1O[C@H]1C[C@@H](O)C=C[C@@]31CCN(C)C2 [Galanthamine] | – | 1.13 | –
Nc1nc(O)c2ncn(COC(CO)CO)c2n1 [Ganciclovir, reference compound] | -0.19 | – | –
COc1c(N2CCNC(C)C2)c(F)cc2c(=O)c(C(=O)O)cn(C3CC3)c12 (stereo not drawn) [Gatifloxacin, reference compound] | 1.07 | – | –
COc1ccc(Cl)cc1C(=O)NCCc1ccc(S(=O)(=O)NC(=O)NC2CCCCC2)cc1 [Glyburide, reference compound] | -0.5 | – | –
C[N+]1(C)CCC(OC(=O)C(O)(c2ccccc2)C2CCCC2)C1 (stereo not drawn) [Glycopyrrolate, reference compound] | -0.44 | 0 | –
COC1=CC(=O)C[C@@H](C)[C@]12Oc1c(Cl)c(OC)cc(OC)c1C2=O [Griseofulvin, reference compound] | 0.64 | – | –
C[C@@H]1C[C@H]2[C@@H]3C[C@H](F)C4=CC(=O)C(Cl)=C[C@]4(C)[C@@]3(F)[C@@H](O)C[C@]2(C)[C@@]1(O)C(=O)CO.O [HALOMETASONE MONOHYDRATE] | – | -0.25 | –
COC(=O)C[C@](O)(CCCC(C)(C)O)C(=O)O[C@@H]1C(OC)=C[C@]23CCCN2CCc2cc4c(cc2[C@H]13)OCO4 [HOMOHARRINGTONINE] | – | – | Z-SCORE [2]: flagged

Reference: PMC5653977 (EMBO Molecular Medicine, 2017)
